Test results as given in US20260265229A1, “Small Molecule Modulators of IL-17A, Methods of Making and Methods of Using Thereof” (Ascletis Pharma (China) Co., Limited, priority 2023, published 2026).

Target: T1, IL-17A (Homo sapiens, UniProt Q16552)
T1 construct: purchased R&D 7955-IL
T1 sequence (Q16552 24-155): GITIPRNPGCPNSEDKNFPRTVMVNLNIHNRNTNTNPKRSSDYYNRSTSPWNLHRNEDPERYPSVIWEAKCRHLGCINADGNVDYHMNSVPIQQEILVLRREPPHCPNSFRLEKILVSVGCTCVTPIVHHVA
Experiment: HEK-Blue IL-17 cell assay (SEAP reporter, rhIL-17A/A stimulation)
Assay type: cell-based
Conditions: HEK-Blue IL-17 cells with rhIL-17A/A, 20 hours at 37° C., absorbance at 405 nm
Protocol: 1. The test Compounds were 3-fold serial diluted from 10 mM for 10 doses in DMSO.
2. Prepare Reference Compounds (IL-17A-Inhibitor-1) were 3-fold serial diluted from 1 mM for 10 doses in DMSO.
3. Prepare 1000× Positive control (1 mM IL-17A-Inhibitor-1) and 1000× vehicle control (100% DMSO).
• a) Cells were cultured as the HEK-Blue™ IL-17 technical data sheet recommended. HEK-Blue IL-17 cells were assayed in the exponential growth phase. • b) Aspirate growth medium and rinse cells twice with PBS to remove phenol red. • c) Resuspend cells in test medium to a proper concentration. • d) Only cells with viability greater than 90% were used for assays. • e) Transfer 25nl of compound dilutions into 384-well assay plates using Echo655; • f) Seed 25 ul of HEK-Blue IL-17 cells at 8,000 cells/well into 384-well plate with rhIL-17A/A. • g) Cells were incubated for 20 hours at 37° C. under 5% CO2 atmosphere. • h) Transfer 2 ul of cells supernatant into per well of 384-well assay plates. • i) Add 20 ul of PNPP substrate. • j) Measure the Absorbance at 405 nm on Envision 2105 plate reader.
RLU signal (LUMempd) is calculated for each well. % Inhibition is calculated as follow: […]
Signalave_pc: The average signal for the positive controls across the plate.
Signalave_vc: The average signal for negative controls across the plate.
Calculate IC50 and Plot effect-dose curve of cmpds:
Calculate IC50 by fitting % Inhibition values and log of compound concentrations to nonlinear regression (dose response−variable slope) with Graphpad 8.0.

| IC50 | SMILES |
| --- | --- |
| 143 nM | CC(C)n1nccc1C(=O)N[C@H](C(=O)Nc1ccc([C@H]2CN(C(=O)CCC(F)(F)F)C[C@@H]2C(=O)N2CC(F)(F)C(F)(F)C2)cc1)C1CCCCCC1 [Example 59] |
| 66.8 nM | COC(=O)N1C[C@H](C(=O)N2CC(F)(F)C(F)(F)C2)[C@@H](c2ccc(NC(=O)[C@@H](NC(=O)c3ccnn3C(C)C)C3CCCCCC3)cc2F)C1 [Example 61] |
| 46.8 nM | COC(=O)N1C[C@H](C(=O)N2CC(F)(F)C(F)(F)C2)[C@@H](c2ccc(NC(=O)[C@@H](NC(=O)c3ccnn3C(C)C)C3CCCCCC3)cc2)C1 [Example 57] |
| 532 nM | COC(=O)N1CC(C(=O)N2CC(F)(F)C2)C(c2cc(F)c3nc([C@@H](NC(=O)c4ccnn4C(C)C)C4CCCCCC4)[nH]c3c2)C1 (stereo partly drawn) [Example 53] |
| 944 nM | COC(=O)N1C[C@H](C(=O)N2CC(F)(F)C2)[C@@H](c2ccc(NC(=O)[C@@H](NC(=O)c3ccnn3C(C)C)C3CCC(F)(F)CC3)cc2)C1 [Example 55] |
| 6040 nM | COC(=O)N1CC(C(=O)N2CC(F)(F)C2)=C(c2ccc3cnc([C@@H](NC(=O)c4ccnn4C(C)C)C4CCC(F)(F)CC4)nc3c2)C1 [Example 46] |
| 118 nM | CC(=O)N1CC(C(=O)N2CC(F)(F)C2)C(c2cc(F)c3nc([C@@H](NC(=O)c4ccnn4C(C)C)C4CCCCCC4)[nH]c3c2)C1 (stereo partly drawn) [Example 51] |
| 28.6 nM | CC(=O)N1C[C@H](C(=O)N2CC(F)(F)C(F)(F)C2)[C@@H](c2ccc(NC(=O)[C@@H](NC(=O)c3ccnn3C(C)C)C3CCCCCC3)cc2)C1 [Example 54] |
| 103 nM | CC(=O)N1C[C@H](C(=O)NCC(C)(F)F)[C@@H](c2ccc(NC(=O)[C@@H](NC(=O)c3ccnn3C(C)C)C3CCCCCC3)cc2)C1 [Example 52] |
| 69 nM | CC(=O)N1C[C@H](c2ccc(NC(=O)[C@@H](NC(=O)c3ccnn3C(C)C)C3CCCCCC3)cc2)[C@H](C(=O)N2CC(F)(F)C2)C1 [Example 6] |
| 1860 nM | CC(=O)N1C[C@H](C(=O)N2CCN(C)CC2)[C@@H](c2ccc(NC(=O)[C@@H](NC(=O)c3ccnn3C(C)C)C3CCCCCC3)cc2)C1 [Example 49] |
| 39.6 nM | CC(=O)N1CC(c2ccc(NC(=O)[C@@H](NC(=O)c3ccnn3C(C)C)C3CCCCCC3)cc2)[C@H](C(=O)N2CC(F)(F)C(F)(F)C2)C1 (stereo partly drawn) [Cis-62] |
| 39.3 nM | CC(C)n1nccc1C(=O)N[C@H](C(=O)Nc1ccc([C@H]2CN(C(=O)N(C)C)C[C@@H]2C(=O)N2CC(F)(F)C(F)(F)C2)cc1)C1CCCCCC1 [Example 58] |
| 420 nM | CC(C)n1nccc1C(=O)N[C@H](c1nc2c(F)cc(C3=C(C(=O)N4CC(F)(F)C4)CN(C(=O)OCc4ccccc4)C3)cc2[nH]1)C1CCCCCC1 [Example 50] |
| 44.4 nM | CC(=O)N1C[C@H](c2ccc(NC(=O)[C@@H](NC(=O)c3ccnn3C(C)C)C3CCCCCC3)cc2)[C@H](C(=O)NCC(F)(F)F)C1 [Example 66] |
| 1450 nM | COC(=O)N1C[C@H](C(=O)N2CC(F)(F)C2)[C@@H](c2ccc(NC(=O)[C@@H](NC(=O)c3nonc3C)C3CCC(F)(F)CC3)cc2)C1 [Example 56] |
| 11.5 nM | CC(=O)N1C[C@H](c2ccc(NC(=O)[C@@H](NC(=O)c3ccnn3C(C)C)C3CCCCCC3)cc2)[C@H](C(=O)N2CC(F)(F)C(F)(F)C2)C1 [Example 64] |
| 315 nM | CC(=O)N1C[C@H](C(=O)N2CC(F)(F)C(F)(F)C2)[C@@H](c2ccc(NC(=O)[C@@H](NC(=O)c3ccnn3C(C)C)C3CCC(F)(F)CC3)cc2)C1 [Example 60] |
| 31.4 nM | CC(=O)N1C[C@H](c2ccc(NC(=O)[C@@H](NC(=O)c3ccnn3C(C)C)C3CCCCCC3)c(F)c2)[C@H](C(=O)N2CC(F)(F)C(F)(F)C2)C1 [Example 67] |
| 48.6 nM | CC(=O)N1C[C@H](C(=O)N(C)CC(F)(F)F)[C@@H](c2ccc(NC(=O)[C@@H](NC(=O)c3ccnn3C(C)C)C3CCCCCC3)cc2)C1 [Example 68] |
| 110 nM | COC(=O)N1C[C@H](C(=O)N2CC(F)(F)C2)[C@@H](c2ccc(NC(=O)[C@@H](NC(=O)c3ccnn3C(C)C)C3CCCCCC3)cc2)C1 [Example 2] |
| 132 nM | CC(=O)N1CC(c2ccc(NC(=O)[C@@H](NC(=O)c3ccnn3C(C)C)C(C3CC3)C3CC3)cc2)[C@@H](C(=O)N2CC(F)(F)C(F)(F)C2)C1 (stereo partly drawn) [Example 63] |
| 57.2 nM | CC(=O)N1C[C@H](C(=O)N2CC(F)(F)C(F)(F)C2)[C@H](c2ccc(NC(=O)[C@@H](NC(=O)c3ccnn3C(C)C)C3CCCCCC3)cc2)C1 [Example 65] |
| 15.3 nM | COC(=O)N1C[C@H](c2ccc(NC(=O)[C@@H](NC(=O)c3ccnn3C(C)C)C3CCCCCC3)cc2)[C@H](C(=O)N2CC(F)(F)C2)C1 [Example 1, methyl (3S,4S)-3-(4-((S)-2-cycloheptyl-2-(1-isopropyl-1H-pyrazole-5-carboxamido)acetamido)phenyl)-4-(3,3-difluoroazetidine-1-carbonyl)pyrrolidine-1-carboxylate] |
